# Laboratory results: ChEMBL document CHEMBL1201862, “PubChem BioAssay data set” (2004)
#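 Exposure lasted 48 hours, with cells grown in 96-well plates and compounds tested at five concentrations. The concentration for 50% growth inhibition is given as GI50.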 Active and inactive are the calls of the source. Cut-off read from the data, not from the text of the source: active = GI50 up to about 1.1 µM and inactive = higher.
# Experiments:
# Assay in all cases: NCI tumour cell line growth inhibition, 48 h
# [1] = test system: SF-268
# [2] = test system: EKVX
# [3] = test system: NCI-H23
# [4] = test system: SF-295
# [5] = test system: SF-539
# [6] = test system: NCI-H226
# [7] = test system: MDA-N
# [8] = test system: HCT-15
# [9] = test system: OVCAR-8
# [10] = test system: NCI-H460
# [11] = test system: SNB-75
# [12] = test system: U-251
# [13] = test system: A498
# [14] = test system: KM12
# [15] = test system: A549
# [16] = test system: NCI-H522
# [17] = test system: PC-3
# [18] = test system: HCC 2998
# [19] = test system: M14
# [20] = test system: Hs-578T
# [21] = test system: OVCAR-5
# [22] = test system: BT-549
# [23] = test system: T47D
# [24] = test system: CCRF-CEM
# [25] = test system: UACC-257
# [26] = test system: RXF 393
# [27] = test system: COLO 205
# [28] = test system: RPMI-8226
# [29] = test system: SK-MEL-2
# [30] = test system: TK-10
# [31] = test system: MDA-MB-231
# [32] = test system: OVCAR-3
# [33] = test system: CAKI-1
# [34] = test system: NCI/ADR-RES
# [35] = test system: Malme-3M
# [36] = test system: MCF7
# [37] = test system: ACHN
# [38] = test system: HT-29
# [39] = test system: DU-145
# [40] = test system: HCT-116
# [41] = test system: K562
# [42] = test system: OVCAR-4
# [43] = test system: SR
# [44] = test system: SK-MEL-5
# [45] = test system: SN12C
# [46] = test system: MDA-MB-435
# [47] = test system: UO-31
# [48] = test system: IGROV-1
# [49] = test system: SK-OV-3
# [50] = test system: UACC-62
# [51] = test system: HL-60
# [52] = test system: 786-0
# [53] = test system: MOLT-4
# [54] = test system: HOP-62
# [55] = test system: SNB-19
# [56] = test system: LOX IMVI
# [57] = test system: SW-620
# [58] = test system: HOP-92
# [59] = test system: SK-MEL-28
structure (smiles),measurement,setting,value
Cc1cc(N(CCC#N)CCC#N)ccc1C(/N=N/c1ccccc1)=N\NC(=O)c1ccccc1,GI50,[1],42.8 µM (inactive)
same,GI50,[2],39.4 µM (inactive)
same,GI50,[3],30.5 µM (inactive)
same,GI50,[4],11.6 µM (inactive)
same,GI50,[5],17.4 µM (inactive)
same,GI50,[6],43.4 µM (inactive)
same,GI50,[7],7.96 µM (inactive)
same,GI50,[8],18.3 µM
same,GI50,[9],24.3 µM (inactive)
same,GI50,[10],29.3 µM (inactive)
same,GI50,[11],48.6 µM (inactive)
same,GI50,[12],35.7 µM (inactive)
same,GI50,[13],24.6 µM (inactive)
same,GI50,[14],18.1 µM (inactive)
same,GI50,[15],38.8 µM (inactive)
same,GI50,[16],16.3 µM (inactive)
same,GI50,[17],16.9 µM (inactive)
same,GI50,[18],22.9 µM (inactive)
same,GI50,[19],69 µM (inactive)
same,GI50,[20],31.5 µM (inactive)
same,GI50,[21],86.9 µM (inactive)
same,GI50,[22],24 µM (inactive)
same,GI50,[23],5.2 µM (inactive)
same,GI50,[24],18.6 µM (inactive)
same,GI50,[25],38.5 µM (inactive)
same,GI50,[26],58.1 µM (inactive)
same,GI50,[27],20.4 µM (inactive)
same,GI50,[28],42.7 µM (inactive)
same,GI50,[29],77.1 µM (inactive)
same,GI50,[30],7.66 µM (inactive)
same,GI50,[31],57 µM (inactive)
same,GI50,[32],30.3 µM (inactive)
same,GI50,[33],28.2 µM (inactive)
same,GI50,[34],20.2 µM (inactive)
same,GI50,[35],34 µM (inactive)
same,GI50,[36],18.6 µM (inactive)
same,GI50,[37],16.4 µM (inactive)
same,GI50,[38],16.8 µM (inactive)
same,GI50,[39],21.7 µM (inactive)
same,GI50,[40],20.6 µM (inactive)
same,GI50,[41],9.84 µM (inactive)
same,GI50,[42],29.2 µM (inactive)
same,GI50,[43],6.81 µM (inactive)
same,GI50,[44],18.7 µM (inactive)
same,GI50,[45],43.9 µM (inactive)
same,GI50,[46],8.04 µM (inactive)
same,GI50,[47],17.9 µM (inactive)
same,GI50,[48],28.2 µM (inactive)
same,GI50,[49],53.5 µM (inactive)
same,GI50,[50],2.77 µM (inactive)
same,GI50,[51],35.7 µM (inactive)
same,GI50,[52],25.5 µM (inactive)
same,GI50,[53],19.5 µM (inactive)
same,GI50,[54],55.8 µM (inactive)
same,GI50,[55],40.4 µM (inactive)
CC[C@]12C=CCN3CC[C@@]4(c5cc(Br)c(OC)cc5N(C)[C@H]4[C@@](O)(C(=O)NN)[C@@H]1O)[C@@H]32,GI50,[1],56.1 µM (inactive)
same,GI50,[2],59.4 µM (inactive)
same,GI50,[3],68.1 µM (inactive)
same,GI50,[4],65.5 µM (inactive)
same,GI50,[5],30.5 µM (inactive)
same,GI50,[6],43 µM (inactive)
same,GI50,[7],48.1 µM (inactive)
same,GI50,[8],> 100 µM
same,GI50,[9],46.9 µM (inactive)
same,GI50,[10],> 100 µM (inactive)
same,GI50,[11],18.2 µM (inactive)
same,GI50,[12],52 µM (inactive)
same,GI50,[13],36.8 µM (inactive)
same,GI50,[14],> 100 µM (inactive)
same,GI50,[15],> 100 µM (inactive)
same,GI50,[16],52.2 µM (inactive)
same,GI50,[17],28.1 µM (inactive)
same,GI50,[18],> 100 µM (inactive)
same,GI50,[19],55.5 µM (inactive)
same,GI50,[20],76.4 µM (inactive)
same,GI50,[21],> 100 µM (inactive)
same,GI50,[56],65.6 µM (inactive)
same,GI50,[22],36.1 µM (inactive)
same,GI50,[23],40.4 µM (inactive)
same,GI50,[24],38 µM (inactive)
same,GI50,[25],55 µM (inactive)
same,GI50,[26],22.5 µM (inactive)
same,GI50,[27],> 100 µM (inactive)
same,GI50,[29],29.8 µM (inactive)
same,GI50,[30],59.4 µM (inactive)
same,GI50,[31],70.3 µM (inactive)
same,GI50,[32],58.9 µM (inactive)
same,GI50,[33],> 100 µM (inactive)
same,GI50,[34],> 100 µM (inactive)
same,GI50,[35],69.8 µM (inactive)
same,GI50,[36],30.3 µM (inactive)
same,GI50,[57],> 100 µM (inactive)
same,GI50,[37],79.3 µM (inactive)
same,GI50,[38],> 100 µM (inactive)
same,GI50,[39],> 100 µM (inactive)
same,GI50,[40],> 100 µM (inactive)
same,GI50,[41],48.2 µM (inactive)
same,GI50,[42],96.6 µM (inactive)
same,GI50,[44],49.5 µM (inactive)
same,GI50,[45],76.9 µM (inactive)
same,GI50,[58],> 100 µM (inactive)
same,GI50,[46],93.5 µM (inactive)
same,GI50,[47],> 100 µM (inactive)
same,GI50,[48],87.1 µM (inactive)
same,GI50,[49],75.7 µM (inactive)
same,GI50,[50],40.7 µM (inactive)
same,GI50,[59],67.3 µM (inactive)
same,GI50,[51],37.9 µM (inactive)
same,GI50,[52],57.5 µM (inactive)
same,GI50,[53],26.7 µM (inactive)
same,GI50,[54],> 100 µM (inactive)
same,GI50,[55],91.6 µM (inactive)
